Activity and Kd data for 13 molecules are collected here from ChEMBL document CHEMBL4368856, “Probing the hras-1Y i-motif with small molecules” (Medchemcomm, 2018).

Data set [1] in a line: Aggregation property of the compound in D2O/DMSO at 100 uM by 1H-WaterLOGSY NMR analysis. Format: physicochemical.
Data set [2] can be described thus: Binding affinity to HRAS-1 Y i-motif DNA (unknown origin) in pH 8 D2O/DMSO at 100 uM by 1H-WaterLOGSY NMR analysis.
A short description of data set [3]: Binding affinity to 5'-AlexaFluor 647-labelled HRAS-1 Y i-motif DNA (unknown origin) by fluorescence titration method.
The nature of data set [4]: Binding affinity to HRAS-1 Y i-motif DNA (unknown origin) assessed as change in melting temperature by thermal denaturation study.
The nature of data set [5]: Binding affinity to HRAS-1 Y i-motif DNA (unknown origin) in D2O/DMSO at 100 uM by 1H-WaterLOGSY NMR analysis.
The nature of data set [6]: Binding affinity to HRAS-1 Y i-motif DNA (unknown origin) in pH 6 D2O/DMSO assessed as chemical shift perturbation in i-motif imino proton at 15 to 16 ppm up to 150 uM by NMR analysis.
Data set [7] in a line: Binding affinity to 5'-ATTO/3'-TAMRA labelled HRAS-1 Y i-motif DNA (unknown origin) up to 252 uM after 10 mins by FRET assay.
The nature of data set [8]: Binding affinity to HRAS-1 Y i-motif DNA (unknown origin) in pH 6 tris-acetate buffer assessed as confirmational change at 10 to 50 uM by circular dichroism analysis. In general terms: Circular dichroism is the unequal absorption of left and right circularly polarised light.
The nature of data set [9]: Binding affinity to HRAS-1 Y i-motif DNA (unknown origin) in pH 6 D2O/DMSO assessed as chemical shift perturbation in Watson-Crick imino proton at 12.5 to 14 ppm up to 150 uM by NMR analysis.
Data set [10] is described as follows: Binding affinity to HRAS-1 Y i-motif DNA (unknown origin) in pH 6 D2O/DMSO at 100 uM by 1H-WaterLOGSY NMR analysis.
The nature of data set [11]: Binding affinity to 5'-biotin-labelled HRAS-1 Y i-motif DNA (unknown origin) by surface plasmon resonance analysis. On the technique in general: SPR reads the build-up and loss of mass on a sensor chip optically.
Data set [12] in a line: Binding affinity to HRAS-1 Y i-motif DNA (unknown origin) in pH 6 D2O/DMSO assessed as chemical shift perturbation at 7 to 12 ppm up to 150 uM by NMR analysis.
The nature of data set [13]: Binding affinity to 5'-AlexaFluor 647-labelled HRAS-1 Y i-motif DNA (unknown origin) after 1 hr by fluorescence assay.

Molecules are shown by their SMILES. Calls of active or inactive are those of the source. The calls are words filed in the database; no cut-off is given here. Some results are limits rather than exact numbers.

As to `CC(c1ccc(-c2cc(NCCO)nc(N)n2)cc1)N1CCCC1` (stereo not given), the Activity entry in [1] is listed as “Not Active”. The result in [2], in data set [4], in data set [7], in data set [9] and in data set [12] was inactive. Further, the Kd was determined as 1.6 µM in [3] and 7.4 µM in data set [11]. In addition, the result in [5], in [6], in data set [8], in data set [10] and in [13] was Active.

As for `COc1ccc(CCCNc2nc(N)nc3c2CCNCC3)cc1OC`, the Kd came out at 30.8 µM in data set [3] and 78 µM in data set [11].

With `Nc1nccc(N2CCCC(CCc3ccccc3)C2)n1` (stereo not given), the Kd is above 209 µM in [3] and above 300 µM in data set [11].

Consider `CC(c1ccc(-c2cc(N3CCOCC3)nc(N)n2)cc1)C(C)N1CCCC1` (stereo not given), for which the Kd in data set [3] worked out at 90.7 µM; in data set [11], 149 µM.

`COc1cc(N2CCCC(N(C)CCc3ccc(OC)c(OC)c3)C2)ncn1` (stereo not given): the Kd worked out at 0.6 µM in data set [3] and 0.2 µM in data set [11].

As to `COc1ccc(CCN(C)C2CCCN(c3ccnc(N(C)C)n3)C2)cc1OC` (stereo not given), the results for the Kd in [3] and in data set [11] were 50.4 µM and above 300 µM, respectively.

Regarding `COc1ccc(CCN(C)C2CCCN(c3cc(C)nc(N)n3)C2)cc1OC` (stereo not given), the Kd in data set [3] is 16 µM; in [11], 11.6 µM.

On to `COc1ccc(CCN(C)C2CCCN(c3ccnc(N)n3)C2)cc1OC` (stereo not given), for which the outcome in data set [2], in data set [4], in [6] and in [8] was inactive. Further, the Kd was 35.6 µM in data set [3] and 5.9 µM in [11]. For the same molecule, the result in data set [9], in [10], in data set [12] and in [13] was Active.

With `COc1ccc(CCN(C)C2CCCN(c3ccnc(C)n3)C2)cc1OC` (stereo not given), the Kd stood at 3 µM in [3] and 0.3 µM in data set [11].

For the molecule `COc1cc(-c2ccc(C(C)N3CCCC3)cc2)nc(N)n1` (stereo not given), the results for the dissociation constant (Kd) in data set [3] and in data set [11] were above 209 µM and above 300 µM, respectively.

On to `COc1cc(-c2ccc(C(C)N3CCCCC3)cc2)nc(N)n1` (stereo not given), for which the Kd turned out to be 254 µM in data set [3] and 51 µM in data set [11].

For `CC(c1ccc(-c2cc(N3CCCC3)nc(N)n2)cc1)N(C)C` (stereo not given), the figures for the Kd in data set [3] and in data set [11] were 106 µM and above 300 µM, respectively.

`NCCn1cc(C(=O)NC2CCCN(Cc3cccc(O)c3)C2)nn1` (stereo not given): the Kd in [3] was above 209 µM; in [11], 243 µM.

What is called Kd is the constant that tells how readily two partners part at equilibrium. Low readings indicate a tighter complex, high ones a looser complex.
